Measurements as given in PubChem BioAssay AID330 (DTP/NCI, 2004).
Where “and” joins values, the source holds several entries; their conditions need not be identical. Equal entries are not always repeated. Toxic doses and inconclusive results are not listed. The calls were made as follows: active = survival T/C of 150% or more; inactive = T/C below 125% in these data.

Test system: P388 leukemia ip, CD2F1 mice, survival T/C
Test: NCI In Vivo Anticancer Drug Screen. Data for tumor model P388 Leukemia (intraperitoneal) in CD2F1 (CDF1) mice
Settings: endpoint: median survival time, higher = longer survival
Procedure, shortened: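 Mice carrying the transplanted tumor received test compound or vehicle. Survival was recorded in each group, and the value is the treated-group measurement divided by that of the vehicle-treated control group.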

[1] = dose: 60.0 mg/kg/injection, schedule: Q01DX005 (ip), vehicle: saline with Tween-80
[2] = dose: 120.0 mg/kg/injection, schedule: Q01DX005 (ip), vehicle: saline with Tween-80
[3] = dose: 240.0 mg/kg/injection, schedule: Q01DX005 (ip), vehicle: saline with Tween-80
[4] = dose: 60.0 mg/kg/injection, schedule: Q01DX005 (ip), vehicle: Klucel (hydroxypropylcellulose) (HPC)
[5] = dose: 120.0 mg/kg/injection, schedule: Q01DX005 (ip), vehicle: Klucel (hydroxypropylcellulose) (HPC)
[6] = dose: 50.0 mg/kg/injection, schedule: Q01DX009 (ip), vehicle: Klucel (hydroxypropylcellulose) (HPC)
[7] = dose: 100.0 mg/kg/injection, schedule: Q01DX009 (ip), vehicle: Klucel (hydroxypropylcellulose) (HPC)
[8] = dose: 200.0 mg/kg/injection, schedule: Q01DX009 (ip), vehicle: Klucel (hydroxypropylcellulose) (HPC)
[9] = dose: 50.0 mg/kg/injection, schedule: Q01DX005 (ip), vehicle: Klucel (hydroxypropylcellulose) (HPC)
[10] = dose: 100.0 mg/kg/injection, schedule: Q01DX005 (ip), vehicle: Klucel (hydroxypropylcellulose) (HPC)
[11] = dose: 200.0 mg/kg/injection, schedule: Q01DX005 (ip), vehicle: Klucel (hydroxypropylcellulose) (HPC)
[12] = dose: 25.0 mg/kg/injection, schedule: Q01DX005 (ip), vehicle: saline with Tween-80
[13] = dose: 50.0 mg/kg/injection, schedule: Q01DX005 (ip), vehicle: saline with Tween-80

Measured: T/C

C=CCN(CC=C)C(N)=Nc1ccccc1Cl
inactive: dose: 6.25 mg/kg/injection, schedule: Q01DX005 (ip), vehicle: saline 103 % of control | dose: 12.5 mg/kg/injection, schedule: Q01DX005 (ip), vehicle: saline 103 % of control | dose: 25.0 mg/kg/injection, schedule: Q01DX005 (ip), vehicle: saline 103 % of control

CCc1ccc2ccc3ccc(CC)nc3c2n1
inactive: [1] 106 % of control | [2] 102 % of control | [3] 99 % of control

[Cl][Pd][Cl].[NH-]C(C(=O)OCc1ccccc1)c1ccccc1.[NH-]C(C(=O)OCc1ccccc1)c1ccccc1 (configuration not stated)
inactive: dose: 6.25 mg/kg/injection, schedule: Q04DX003 (ip), vehicle: saline 100 % of control | dose: 12.5 mg/kg/injection, schedule: Q04DX003 (ip), vehicle: saline 100 % of control | dose: 25.0 mg/kg/injection, schedule: Q04DX003 (ip), vehicle: saline 97 % of control | dose: 100.0 mg/kg/injection, schedule: Q04DX003 (ip), vehicle: saline 108 % of control

C/C(=N\NC(N)=S)c1cccc(/C(C)=N/NC(N)=S)n1
inactive: dose: 12.5 mg/kg/injection, schedule: Q04DX003 (ip), vehicle: saline with Tween-80 91 % of control | dose: 25.0 mg/kg/injection, schedule: Q04DX003 (ip), vehicle: saline with Tween-80 93 % of control | dose: 50.0 mg/kg/injection, schedule: Q04DX003 (ip), vehicle: saline with Tween-80 89 % of control

CCCCCCCCCc1cc(=O)[nH]c(=S)[nH]1
inactive: dose: 15.0 mg/kg/injection, schedule: Q01DX005 (ip), vehicle: Klucel (hydroxypropylcellulose) (HPC) 99 % of control | dose: 30.0 mg/kg/injection, schedule: Q01DX005 (ip), vehicle: Klucel (hydroxypropylcellulose) (HPC) 102 % of control | [4] 90 % of control and 93 % of control | [5] 100 % of control

CNCC(OC)c1ccc(O)c(O)c1 (configuration not stated)
inactive: dose: 100.0 mg/kg/injection, schedule: Q01DX009 (ip), vehicle: saline 104 % of control and 107 % of control | dose: 200.0 mg/kg/injection, schedule: Q01DX009 (ip), vehicle: saline 107 % of control and 118 % of control

C[C@]12CC(=O)O[C@@H](C[C@H]1OC(=O)c1ccccc1)[C@@]21CO1
inactive: dose: 1.0 mg/kg/injection, schedule: Q04DX002 (ip), vehicle: distilled water + Tween-80 102 % of control | dose: 2.0 mg/kg/injection, schedule: Q04DX002 (ip), vehicle: distilled water + Tween-80 103 % of control | dose: 4.0 mg/kg/injection, schedule: Q04DX002 (ip), vehicle: distilled water + Tween-80 100 % of control | dose: 8.0 mg/kg/injection, schedule: Q04DX002 (ip), vehicle: distilled water + Tween-80 94 % of control | dose: 16.0 mg/kg/injection, schedule: Q04DX002 (ip), vehicle: distilled water + Tween-80 100 % of control

Cc1ccc(N2C(=O)CCSC2=S)cc1Cl
inactive: [6] 115 % of control | dose: 50.0 mg/kg/injection, schedule: Q01DX009 (ip), vehicle: suspension in saline 87 % of control | [7] 114 % of control and 122 % of control | dose: 100.0 mg/kg/injection, schedule: Q01DX009 (ip), vehicle: suspension in saline 90 % of control | [8] 86 % of control | dose: 200.0 mg/kg/injection, schedule: Q01DX009 (ip), vehicle: suspension in saline 99 % of control

CCn1cc(C(=O)O)c(=O)c2ccc(-c3cn[nH]c3C)nc21
inactive: dose: 50.0 mg/kg/injection, schedule: Q04DX003 (ip), vehicle: suspension in saline 106 % of control | dose: 100.0 mg/kg/injection, schedule: Q04DX003 (ip), vehicle: suspension in saline 107 % of control | dose: 200.0 mg/kg/injection, schedule: Q04DX003 (ip), vehicle: suspension in saline 106 % of control

COC(=O)C12CN(C)CC(C(=O)OC)(C1=O)C(c1ccccc1)OC2c1ccccc1 (configuration not stated)
inactive: [1] 107 % of control and 98 % of control | [2] 99 % of control | [3] 98 % of control and 90 % of control

CSc1nc(NC2OC(CO)C(O)C(O)C2O)c(Cl)c(=O)[nH]1 (configuration not stated)
inactive: [1] 97 % of control | [2] 97 % of control | [3] 98 % of control

COc1cc2c(cc1OC)C1Cc3ccc4cc(OC)c(OC)cc4c3CN1CC2 (configuration not stated)
inactive: dose: 25.0 mg/kg/injection, schedule: Q01DX009 (ip), vehicle: saline with Tween-80 90 % of control | dose: 50.0 mg/kg/injection, schedule: Q01DX009 (ip), vehicle: saline with Tween-80 100 % of control | dose: 100.0 mg/kg/injection, schedule: Q01DX009 (ip), vehicle: saline with Tween-80 95 % of control

Cc1cc(O)c(CO)cc1C
inactive: dose: 100.0 mg/kg/injection, schedule: Q04DX002 (ip), vehicle: saline with Tween-80 104 % of control | dose: 200.0 mg/kg/injection, schedule: Q04DX002 (ip), vehicle: saline with Tween-80 110 % of control | dose: 400.0 mg/kg/injection, schedule: Q04DX002 (ip), vehicle: saline with Tween-80 107 % of control

CC(C)(C)CC(C)(C)C/C=C/CN1C(=O)c2ccccc2S1(=O)=O
inactive: [9] 101 % of control | [10] 100 % of control | [11] 108 % of control

O=C(c1ccccc1)C(c1ccccc1)n1nc2c(c1-c1ccccc1)CCC2 (configuration not stated)
inactive: dose: 12.5 mg/kg/injection, schedule: Q01DX001 (ip), vehicle: Klucel (hydroxypropylcellulose) (HPC) 100 % of control | dose: 25.0 mg/kg/injection, schedule: Q01DX001 (ip), vehicle: Klucel (hydroxypropylcellulose) (HPC) 95 % of control | dose: 50.0 mg/kg/injection, schedule: Q01DX001 (ip), vehicle: Klucel (hydroxypropylcellulose) (HPC) 98 % of control | dose: 100.0 mg/kg/injection, schedule: Q01DX001 (ip), vehicle: Klucel (hydroxypropylcellulose) (HPC) 100 % of control

C/C(=N\Nc1cc(C)c2ccccc2n1)c1ccccn1
inactive: dose: 12.5 mg/kg/injection, schedule: Q01DX005 (ip), vehicle: saline with Tween-80 103 % of control | [12] 103 % of control | [13] 102 % of control and 115 % of control

COc1cc([N+](=O)[O-])ccc1C(=O)Nc1c2ccccc2nc2ccccc12
inactive: [12] 95 % of control | [13] 107 % of control | dose: 100.0 mg/kg/injection, schedule: Q01DX005 (ip), vehicle: saline with Tween-80 92 % of control | dose: 200.0 mg/kg/injection, schedule: Q01DX005 (ip), vehicle: saline with Tween-80 92 % of control

COc1cc2c(c3c1c(=O)c1cc(F)ccc1n3C)C=CC(C)(C)O2
inactive: [9] 103 % of control | [10] 100 % of control and 104 % of control | [11] 105 % of control and 98 % of control

O=S1(=O)CC(N2CCOCC2)C2=C(O1)c1sc(-c3ccccc3)nc1CC2 (configuration not stated)
inactive: [9] 104 % of control | [10] 105 % of control | [11] 98 % of control

c1cc2nncn2cn1
inactive: [6] 93 % of control | [7] 104 % of control | [8] 99 % of control

CN1C(=O)c2ccccc2C2(C1=O)C(C#N)=C(N)Oc1c2c2ccccc2c(=O)n1C (configuration not stated)
inactive: [4] 99 % of control | [5] 95 % of control | dose: 240.0 mg/kg/injection, schedule: Q01DX005 (ip), vehicle: Klucel (hydroxypropylcellulose) (HPC) 88 % of control

COc1ccc(/C=C(\C(C)=O)C(=O)CCN(C)C)cc1
inactive: dose: 50.0 mg/kg/injection, schedule: Q01DX005 (ip), vehicle: saline 95 % of control | dose: 100.0 mg/kg/injection, schedule: Q01DX005 (ip), vehicle: saline 105 % of control | dose: 200.0 mg/kg/injection, schedule: Q01DX005 (ip), vehicle: saline 115 % of control

CCN(CCO)CCNc1ccc(CO)c2sc3cc(Cl)ccc3c(=O)c12
inactive: dose: 88.0 mg/kg/injection, schedule: Q01DX009 (ip), vehicle: saline with Tween-80 105 % of control | dose: 133.0 mg/kg/injection, schedule: Q01DX009 (ip), vehicle: saline with Tween-80 113 % of control | dose: 200.0 mg/kg/injection, schedule: Q01DX009 (ip), vehicle: saline with Tween-80 112 % of control | dose: 300.0 mg/kg/injection, schedule: Q01DX009 (ip), vehicle: saline with Tween-80 102 % of control

COC1/C=C/OC2(C)Oc3c(C)c(O)c4c(c3C2=O)C(N)=C(Nc2ccccc2)C(=NC(=O)C(C)=CC=CC(C)C(O)C(C)C(O)C(C)C(OC(C)=O)C1C)C4=O (configuration not stated)
inactive: dose: 25.0 mg/kg/injection, schedule: Q01DX009 (ip), vehicle: Klucel (hydroxypropylcellulose) (HPC) 97 % of control | [6] 94 % of control | [7] 98 % of control | [8] 86 % of control
